Measurements as given in patent US20080311099A1, “Pyridoxal-5-Phosphate and Related Compounds in Combination With Therapeutic Cardiovascular Compounds for Treating Angina” (MEDICURE INTERNATIONAL INC., priority 2004, published 2008).

What was measured:
[1] = Animal models for treatment of stress-induced angina (canine model of myocardial ischemia, canine model of exertional dysfunction, isolated perfused rat heart model of low flow ischemia); assay type: in vivo; conditions: compared with untreated or sham treated control animals
From the text: The canine model of myocardial ischemia, the canine model of exertional dysfunction, and the isolated perfused rate heart model of low flow ischemia, as previously and elsewhere described, is used to determine the effectiveness of P5P, pyridoxal, pyridoxine, and the compounds synthesized in Examples 1-24, to determine effectiveness of these compounds in treatment of angina.
The animal model experiments of Example 26 are repeated, this time with the combination treatment groups as elucidated in Examples 28, 29 and 30.

[2] = system: isolated non-ischemic working rat heart; experiment: Glucose oxidation rates in isolated non-ischemic working rat heart ([14C] glucose, 14CO2 production); conditions: 60 minutes aerobic perfusion, compound added about 5 minutes into the aerobic period; saline control 1580±183
Protocol: The goal was to determine if […] altered glucose oxidation rates or cardiac function in the isolated non-ischemic working rat heart model. This was achieved by subjecting rat hearts to 60 minutes of aerobic perfusion. […] was added about 5 minutes into the aerobic period and the effects of […] on glucose metabolism was determined during the aerobic period. […] Rat hearts were cannulated for isolated working heart perfusions as described previously (Lopaschuk et al., J Pharmacol Exp Ther. 1993 January;264(1):135-44). In brief, male Sprague-Dawley rats (0.3-0.35 kg) were anesthetized with pentobarbital sodium (60 mg/kg i. p.). The hearts were quickly excised, the aorta was cannulated, and a retrograde perfusion at 37° C. was initiated at a hydrostatic pressure of 60 mm Hg. Hearts were trimmed of excess tissue, and the pulmonary artery and the opening to the left atrium were then cannulated. […] Spontaneously beating hearts were used in all perfusions, heart rate and aortic pressure were measured with a Biopac Systems Inc. blood pressure transducer connected to the aortic outflow line. Cardiac output and aortic flow were measured with Transonic […] ultrasonic flow probes in the preload and afterload lines, respectively. Coronary flow was calculated as the difference between cardiac output and aortic flow. […]

[3] = water, alcohol, and ether; cited from earlier work
[4] = Treatment of stress-induced angina in patients (P5P, pyridoxine, derivatives; alone and in combination therapies); assay type: in vivo, human
Protocol: Patients with a history of exercise induced angina are treated with P5P either before or after the onset of angina. Several measures are used to test the effectiveness of P5P for the treatment of angina including the time to onset of angina, exercise duration, time to 1 mm ST depression, and patient pain evaluation.
The experiment of Example 25 is repeated, this time testing combination therapies.
The Experiments of Example 28 are repeated, this time using pyridoxine instead of P5P.

[5] = patients with a history of exercise induced angina, treated before or after the onset of angina

Cc1ncc(CO)c(CO)c1O [pyridoxine, 2-methyl-3-hydroxy-4,5-di(hydroxymethyl)pyridine]
symptoms and levels of angina [1]: significantly lower symptoms and levels of angina

Cc1ncc(CO)c(C=O)c1O [pyridoxal]
symptoms and levels of angina [1]: significantly lower symptoms and levels of angina

O=C(O)C(Cl)Cl [DCA, dichloroacetic acid, reference compound]
glucose oxidation rates [2]: 2422±140

Cc1ncc(COP(=O)(O)O)c(C=O)c1O [Example P5P, 3-hydroxy-2-methyl-5-[(phosphonooxy)methyl]-4-pyridine-carboxaldehyde]
glucose oxidation rates [2]: 2253±230
solubility [3]: essentially insoluble in water, alcohol, and ether
symptoms and levels of angina [1]: significantly lower symptoms and levels of angina
exercise duration [4, 5]: increased
onset to angina (time to onset of angina) [4, 5]: diminished
patient pain (patient pain evaluation) [4, 5]: diminished
time to 1 mm ST depression [4, 5]: diminished
angina outcomes, treatment alone ([4]; patients, P5P treatment alone (Example 28)): improves angina outcomes
